Tests used:
AsPC-1 (G12D) = test: In vitro cell proliferation inhibition test (CellTiter-Glo), AsPC-1; format: cell-based; settings: KRAS (p.G12D), 72 h co-incubation
How it was run: (§1)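 IC50 was derived by four-parameter fitting of normalized CellTiter-Glo signals. These were measured after 72 h co-incubation with compound at 10 concentrations, 3-fold serial, final maximum 10 μM. Plating was 1000-5000 cells/well, adjusted to growth rate, with overnight attachment at 37 °C, 5% CO2.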

SW480 (G12V) = test: In vitro cell proliferation inhibition test (CellTiter-Glo), SW480; format: cell-based; settings: SW480 colon cell line, KRAS (p.G12V), 72 h co-incubation
How it was run: as §1

Row | IC50 (AsPC-1 (G12D); AsPC-1 pancreas cell line) [nM] | IC50 (SW480 (G12V)) [nM] | IC50 (AsPC-1 (G12D); Homo sapiens, ASPC1, AsPC-1 pancreas cell line) [nM] | IC50 (SW480 (G12V); Homo sapiens) [nM] | Molecule
1 | > 10000 | 161 |  |  | CCn1c(-c2cc(-c3cc(CN4CCOCC4)on3)cnc2C(C)OC)c2c3cc(ccc31)-c1csc(n1)CC(NC(=O)C1CC1C)C(=O)N1CCCC(N1)C(=O)OCC(C)(C)C2 [Compound 22′, (1S,2S)-N-((6^3S,4S,Z)-1^1-ethyl-1^2-(2-((S)-1-methoxyethyl)-5-(5-(morpholinomethyl)isoxazol-3-yl)pyridin-3-yl)-10,10-dimethyl-5,7-dioxo-6^1,6^2,6^3,6^4,6^5,6^6-hexahydro-1^1H-8-oxa-2(4,2)-thiazola-1(5,3)-indola-6(1,3)-pyridazinacycloundecaphane-4-yl)-2-methylcyclopropane-1-carboxamide]
2 | 2370 | 1340 |  |  | CCn1c(-c2cc(-c3cc(CNC)on3)cnc2C(C)OC)c2c3cc(ccc31)-c1csc(n1)CC(NC(=O)C1CC1C)C(=O)N1CCCC(N1)C(=O)OCC(C)(C)C2 [Compound 23′, (1S,2S)-N-((6^3S,4S,Z)-1^1-ethyl-1^2-(2-((S)-1-methoxyethyl)-5-(5-((methylamino)methyl)isoxazol-3-yl)pyridin-3-yl)-10,10-dimethyl-5,7-dioxo-6^1,6^2,6^3,6^4,6^5,6^6-hexahydro-1^1H-8-oxa-2(4,2)-thiazola-1(5,3)-indola-6(1,3)-pyridazinacycloundecaphane-4-yl)-2-methylcyclopropane-1-carboxamide]
3 | > 10000 | 3610 |  |  | CCn1c(-c2cc(-c3cc(C4CCCN4C)on3)cnc2C(C)OC)c2c3cc(ccc31)-c1csc(n1)CC(NC(=O)C1CC1C)C(=O)N1CCCC(N1)C(=O)OCC(C)(C)C2 [Compound 24′, (1S,2S)-N-((6^3S,4S,Z)-1^1-ethyl-1^2-(2-((S)-1-methoxyethyl)-5-(5-((R)-1-methylpyrrolidin-2-yl)isoxazol-3-yl)pyridin-3-yl)-10,10-dimethyl-5,7-dioxo-6^1,6^2,6^3,6^4,6^5,6^6-hexahydro-1^1H-8-oxa-2(4,2)-thiazola-1(5,3)-indola-6(1,3)-pyridazinacycloundecaphane-4-yl)-2-methylcyclopropane-1-carboxamide]
4 | 3420 | > 10000 |  |  | CCn1c(-c2cc(-c3cc([C@@H]4CCCN4C)on3)cnc2[C@H](C)OC)c2c3cc(ccc31)-c1csc(n1)C[C@H](NC(=O)[C@H]1C[C@@H]1C)C(=O)N1CCC[C@H](N1)C(=O)OCC(C)(C)C2 [Compound 25′, (1S,2S)-N-((6^3S,4S,Z)-1^1-ethyl-1^2-(2-((S)-1-methoxyethyl)-5-(5-((S)-1-methylpyrrolidin-2-yl)isoxazol-3-yl)pyridin-3-yl)-10,10-dimethyl-5,7-dioxo-6^1,6^2,6^3,6^4,6^5,6^6-hexahydro-1^1H-8-oxa-2(4,2)-thiazola-1(5,3)-indola-6(1,3)-pyridazinacycloundecaphane-4-yl)-2-methylcyclopropane-1-carboxamide]
5 | 7.7 | 50 |  |  | CCn1c(-c2cc(-c3cc(C4CN(C)CCO4)on3)cnc2C(C)OC)c2c3cc(ccc31)-c1csc(n1)CC(NC(=O)C1C(C)C1C)C(=O)N1CCCC(N1)C(=O)OCC(C)(C)C2 [Compound 27′, (1r,2R,3S)-N-((6^3S,4S,Z)-1^1-ethyl-1^2-(2-((S)-1-methoxyethyl)-5-(5-((S)-4-methylmorpholin-2-yl)isoxazol-3-yl)pyridin-3-yl)-10,10-dimethyl-5,7-dioxo-6^1,6^2,6^3,6^4,6^5,6^6-hexahydro-1^1H-8-oxa-2(4,2)-thiazola-1(5,3)-indola-6(1,3)-pyridazinacycloundecaphane-4-yl)-2,3-dimethylcyclopropane-1-carboxamide]
6 | 5.3 | 11.4 |  |  | CCn1c(-c2cc(-c3cc(C4CCN(C)C4)on3)cnc2C(C)OC)c2c3cc(ccc31)-c1csc(n1)CC(NC(=O)C1C(C)C1C)C(=O)N1CCCC(N1)C(=O)OCC(C)(C)C2 [Compound 29′, (1r,2R,3S)-N-((6^3S,4S,Z)-1^1-ethyl-1^2-(2-((S)-1-methoxyethyl)-5-(5-((R)-1-methylpyrrolidin-3-yl)isoxazol-3-yl)pyridin-3-yl)-10,10-dimethyl-5,7-dioxo-6^1,6^2,6^3,6^4,6^5,6^6-hexahydro-1^1H-8-oxa-2(4,2)-thiazola-1(5,3)-indola-6(1,3)-pyridazinacycloundecaphane-4-yl)-2,3-dimethylcyclopropane-1-carboxamide]
7 |  |  | 12 | 150 | CCn1c(-c2cc(-c3cn(CC4CCN(C)CC4)nn3)cnc2C(C)OC)c2c3cc(ccc31)-c1csc(n1)C[C@H](NC(=O)[C@H]1C[C@@H]1C)C(=O)N1CCC[C@H](N1)C(=O)OCC(C)(C)C2 (stereo partly drawn) [Compound 65, (1S,2S)-N-((6^3S,4S,Z)-1^1-ethyl-1^2-(2-((S)-1-methoxyethyl)-5-(1-((1-methylpiperidin-4-yl)methyl)-1H-1,2,3-triazol-4-yl)pyridin-3-yl)-10,10-dimethyl-5,7-dioxo-6^1,6^2,6^3,6^4,6^5,6^6-hexahydro-1^1H-8-oxa-2(4,2)-thiazola-1(5,3)-indola-6(1,3)-pyridazinacycloundecaphane-4-yl)-2-methylcyclopropane-1-carboxamide]
8 | 2280 | 265 |  |  | (1S,2S)-N-((6^3S,4S,Z)-1^1-ethyl-1^2-(2-((S)-1-methoxyethyl)-5-(1-((R)-1-methylpyrrolidin-3-yl)-1H-pyrazol-4-yl)pyridin-3-yl)-10,10-dimethyl-5,7-dioxo-6^1,6^2,6^3,6^4,6^5,6^6-hexahydro-1^1H-8-oxa-2(4,2)-thiazola-1(5,3)-indola-6(1,3)-pyridazinacycloundecaphane-4-yl)-2-methylcyclopropane-1-carboxamide [Compound 16′]
9 | 1180 | 633 |  |  | (1S,2S)-N-((6^3S,4S,Z)-1^1-ethyl-1^2-(2-((S)-1-methoxyethyl)-5-(5-(morpholinomethyl)pyrimidin-2-yl)pyridin-3-yl)-10,10-dimethyl-5,7-dioxo-6^1,6^2,6^3,6^4,6^5,6^6-hexahydro-1^1H-8-oxa-2(4,2)-thiazola-1(5,3)-indola-6(1,3)-pyridazinacycloundecaphane-4-yl)-2-methylcyclopropane-1-carboxamide [Compound 14′]
10 | 242 | 346 |  |  | (1S,2S)-N-((6^3S,4S,Z)-1^1-ethyl-1^2-(6′-((S)-1-methoxyethyl)-4-(morpholinomethyl)-[2,3′-bipyridin]-5′-yl)-10,10-dimethyl-5,7-dioxo-6^1,6^2,6^3,6^4,6^5,6^6-hexahydro-1^1H-8-oxa-2(4,2)-thiazola-1(5,3)-indola-6(1,3)-pyridazinacycloundecaphane-4-yl)-2-methylcyclopropane-1-carboxamide [Compound 11′]
11 | 814 | 319 |  |  | (1S,2S)-N-((6^3S,4S,Z)-1^1-ethyl-1^2-(6′-((S)-1-methoxyethyl)-5-(morpholinomethyl)-[2,3′-bipyridin]-5′-yl)-10,10-dimethyl-5,7-dioxo-6^1,6^2,6^3,6^4,6^5,6^6-hexahydro-1^1H-8-oxa-2(4,2)-thiazola-1(5,3)-indola-6(1,3)-pyridazinacycloundecaphane-4-yl)-2-methylcyclopropane-1-carboxamide [Compound 12′]
12 | 302 | 236 |  |  | (1S,2S)-N-((6^3S,4S,Z)-1^1-ethyl-1^2-(6′-((S)-1-methoxyethyl)-6-(morpholinomethyl)-[2,3′-bipyridin]-5′-yl)-10,10-dimethyl-5,7-dioxo-6^1,6^2,6^3,6^4,6^5,6^6-hexahydro-1^1H-8-oxa-2(4,2)-thiazola-1(5,3)-indola-6(1,3)-pyridazinacycloundecaphane-4-yl)-2-methylcyclopropane-1-carboxamide [Compound 13′]
13 | 697 | 85 |  |  | (1r,2R,3S)-N-((6^3S,4S,Z)-1^1-ethyl-1^2-(2-((S)-1-methoxyethyl)-5-(1-(1-methylazetidin-3-yl)-1H-pyrazol-4-yl)pyridin-3-yl)-10,10-dimethyl-5,7-dioxo-6^1,6^2,6^3,6^4,6^5,6^6-hexahydro-1^1H-8-oxa-2(4,2)-thiazola-1(5,3)-indola-6(1,3)-pyridazinacycloundecaphane-4-yl)-2,3-dimethylcyclopropane-1-carboxamide [Compound 17′]
14 | 33 | 16 |  |  | (1r,2R,3S)-N-((6^3S,4S,Z)-1^1-ethyl-1^2-(2-((S)-1-methoxyethyl)-5-(1-(2-(4-methylpiperazin-1-yl)ethyl)-1H-pyrazol-4-yl)pyridin-3-yl)-10,10-dimethyl-5,7-dioxo-6^1,6^2,6^3,6^4,6^5,6^6-hexahydro-1^1H-8-oxa-2(4,2)-thiazola-1(5,3)-indola-6(1,3)-pyridazinacycloundecaphane-4-yl)-2,3-dimethylcyclopropane-1-carboxamide [Compound 19′]
15 | 0.54 | 0.51 |  |  | (1r,2R,3S)-N-((63S,4S,Z)-1^1-(2,2-difluoroethyl)-1^2-(2-((S)-1-methoxyethyl)-5-(2-(morpholinomethyl)pyrimidin-5-yl)pyridin-3-yl)-10,10-dimethyl-5,7-dioxo-6^1,6^2,6^3,6^4,6^5,6^6-hexahydro-1^1H-8-oxa-2(4,2)-thiazola-1(5,3)-indola-6(1,3)-pyridazinacycloundecaphane-4-yl)-2,3-dimethylcyclopropane-1-carboxamide [Compound 48]

Row | Molecule | IC50 (AsPC-1 (G12D); AsPC-1 pancreas cell line) [nM] | IC50 (SW480 (G12V)) [nM] | IC50 (AsPC-1 (G12D); Homo sapiens, ASPC1, AsPC-1 pancreas cell line) [nM] | IC50 (SW480 (G12V); Homo sapiens) [nM]
16 | CCn1c(-c2cc(-c3cnn(CC4CCCN4C)c3)cnc2C(C)OC)c2c3cc(ccc31)-c1csc(n1)CC(NC(=O)C1C(C)C1C)C(=O)N1CCCC(N1)C(=O)OCC(C)(C)C2 [Compound 62, (1r,2R,3S)-N-((6^3S,4S,Z)-1^1-ethyl-1^2-(2-((S)-1-methoxyethyl)-5-(1-(((R)-1-methylpyrrolidin-2-yl)methyl)-1H-pyrazol-4-yl)pyridin-3-yl)-10,10-dimethyl-5,7-dioxo-6^1,6^2,6^3,6^4,6^5,6^6-hexahydro-1^1H-8-oxa-2(4,2)-thiazola-1(5,3)-indola-6(1,3)-pyridazinacycloundecaphane-4-yl)-2,3-dimethylcyclopropane-1-carboxamide] | 0.54 | 3.9 |  | 
